Test results taken from article PMC12575728, “Galactose-modified small molecule modulator targets RORα to enhance circadian rhythm and alleviate periodontitis-associated alveolar bone loss” (Bone Research, 2025).

Columns and labels:
RORα/γ = assay: PCR of RORα/γ downstream target genes G6Pase and FGF21 in HepG2 cells; assay type: cell-based
Method: Cells were seeded into 6-well plates, treated with the drug for 24 h, and total RNA samples were extracted using TRIzol reagent (Vazyme, China). The extraction of total RNA was performed according to the following steps: After removal of the supernatant, the cells were thoroughly washed three times with phosphate-buffered saline (PBS). Subsequently, the cells were lysed by the application of 1 mL TRIzol reagent. The resulting samples were harvested into frozen 2 mL Eppendorf microcentrifuge tubes and incubated at room temperature for 5 min. A volume of 0.2 mL of chloroform was added to the microcentrifuge tubes to ensure homogenization of the samples, which were then vortexed and incubated at room temperature for another 10 min. The samples were then centrifuged at a speed of 12 000 × g in a microcentrifuge at 4 °C for 15 min. The upper aqueous phase was subsequently collected and transferred to a new 2 mL microcentrifuge tube and mixed with an equal volume of isopropanol. The mixture was then centrifuged at a speed of 12 000 × g in a table microcentrifuge at 4 °C for 10 min. The resulting precipitates were washed once with 1 mL of 75% ethanol and once with 100% ethanol, followed by centrifugation at a speed of 7 500 × g in a table microcentrifuge for 5 min. Finally, the pellet was dissolved in RNase-free DEPC-treated water.
(§1) RNA from liver, periodontal tissues and cell samples was prepared as previously described. Total RNA (1 ug) was synthesized into cDNA using […] (Vazyme). mRNA expression levels were normalized to GAPDH. Relative expression levels and enrichment contents were calculated using the comparative Ct Method. Primer information is detailed in Data file S1.

PER2::LUC mice = assay: Real-time bioluminescence recording of PER2::LUC mice; assay type: in vivo; settings: 10 mg/kg IP at ZT0
Method: PER2::LUC mice at ages of 2–3 months-old were housed in 12:12 light-dark conditions for two weeks before the experiments.[33] Gala-SR and SR1078 (10 mg/kg) were dissolved in DMSO and I.P.injected into mouse at ZT0. After 1 h, D-luciferin was I.P. injected into mouse for another 0.5 h. Mice were then imaged on IVIS 673 Lumina III system and analyzed with live imaging software.

[1] = Body weight changes in mice after IP administration; assay type: in vivo; settings: 10 and 50 mg/kg, 7 days
Method: After U2OS cells were treated with various concentrations (0 ~ 50 μM) of SR1078,
Body weight changes (%) in […]

C57 mice = assay: Mouse locomotor assay; assay type: in vivo; settings: 10 mg/kg IP at ZT11, D:D, compared to DMSO
Method: WT C57BL/6 J mice at the age of 2 months old were entrained under a 12-h /12-h […] at 24 °C for 2 weeks.[36] One week after mouse clock synchronization to the ambient light/dark cycle, SR1078, Gala-SR or dimethyl sulfoxide (DMSO) was dissolved in saline and intraperitoneally injected (10 mg/kg) into mice 1 h before light off (ZT11). […] SR1078, Gala-SR or DMSO was injected again 24 h later. After 2 weeks of continuous recording, locomotor activity was analyzed with ClockLab software (Actimetrics) following the procedures described previously34.

BMAL1 = BMAL1 immunofluorescence in synchronized U2OS cells; assay type: cell-based, human; settings: 5 µmol/L
Method: U2OS cells were seeded on coverslips and treated with drugs for 24 h. After treatment, the cells were washed 3 times with PBS and fixed with 4% paraformaldehyde at room temperature for 15 min. The cells were then permeabilized with 0.1% Triton X-100 (diluted in PBS) and blocked with 5% BSA (diluted in PBS) at room temperature for 30 min. Primary antibodies were incubated overnight at 4 °C. The next day, the cells were washed 3 times with PBST and incubated with Cy3-conjugated Affinipure Goat Anti-Rabbit IgG(H + L) secondary antibody (1:200) at room temperature for one hour, with DAPI added to stain the nuclei. After washing 3 times with PBST, images were captured using a laser confocal microscope (Nikon A1-Si).

jet lag mice = assay: Clock gene mRNA in liver of jet lag mice; assay type: in vivo; settings: mice with disordered circadian rhythms
Method: as §1
(§2) Male C57BL/6 mice,[40] 2 months old, were housed under disrupted conditions for 4 weeks. From the third week, they were intraperitoneally injected with Gala-SR, SR1078, or DMSO for 3 weeks. In the fifth week, general anesthesia was administered via intraperitoneal injection of pentobarbital sodium (40 mg/kg), and a ligature was placed around the cervix of the maxillary second molar to establish the murine periodontitis model. Collect gingival tissue and liver tissue every 6 h continuously for a duration of 48 h.

RORα = assay: G6Pase and Fgf21 mRNA in mouse liver after IP injection; assay type: in vivo, mice; settings: 10 mg/kg IP, liver collected 24 h after injection
Method: as §1

[2] = system: periodontitis mice with circadian rhythm disorders; assay: Ligature-induced periodontitis in circadian rhythm disordered (jet lag) mice; assay type: in vivo; settings: for periodontal tissue destruction (HE staining): compared to DMSO-treated controls; for rhythmic expression of circadian genes in periodontal tissue: jet lag mice, 10 mg/kg IP daily for three weeks; for alveolar bone resorption (Micro-CT): jet lag periodontitis mice, 10 mg/kg IP daily, compared to DMSO; for IL-10-positive cell populations / NF-κB pathway mediators Tnf-α and Il-6: periodontal tissue; for TRAP-positive cell numbers (osteoclastic activity): relative to DMSO-treated periodontitis controls
Source text: Periodontitis has the highest incidence rate among all oral diseases and is a major cause of adult tooth loss. […] It is also reported that the inflammatory signaling pathways in periodontal tissue is over activated in periodontitis mice with circadian rhythm disorder.[40] Given this, we have substantial grounds to hypothesize that the restoration of circadian rhythms could potentially ameliorate periodontitis. According to our assumption, periodontal inflammation in circadian rhythm-disordered mice is more critical than in control mice under L:D conditions, resulting in a more severe alveolar bone resorption. Administration of Gala-SR and SR1078 is expected to restore the circadian rhythm, thereby alleviating the inflammation and reducing the alveolar bone absorption (Fig. 6a). […] The mice were initially subjected to a one-week L:D feeding regimen, followed by exposure to disordered conditions for four weeks. At the beginning of the third week, the mice received intraperitoneal injections of Gala-SR or SR1078 (10 mg/kg) or the equivalent amount of DMSO utilized to dissolve these modulators every day for three consecutive weeks. Mice without any treatment and mice treated with DMSO but kept in L:D condition were also set for controls. By the end of the fourth week, a ligature-induced periodontitis model was established as previously described,[39] and samples at different time points were collected one week later for subsequent tests (Fig. 6b).
Alveolar bones were harvested from mice and fixed after removal of soft tissues. The bones were then scanned at a resolution of 9 μm using Micro-CT (SkyScan 1176, Bruker). Images were reconstructed and quantified using InstaRecon/NRecon Research Workplace software. Metrics such as bone volume/total volume, trabecular thickness, bone surface area/bone volume, trabecular number, trabecular separation, and buccal-lingual alveolar bone resorption were used to assess differences among the mice.
as §2

Compound	G6Pase and FGF21 expression, with galactosidase inhibitor (RORα/γ; HepG2, 5 μmol/L Gala-SR + β-galactosidase inhibitor, vs pure Gala-SR)	G6Pase and FGF21 expression, with galactosidase (RORα/γ; HepG2, 5 μmol/L Gala-SR + β-galactosidase, vs pure Gala-SR)	G6Pase and FGF21 mRNA expression (RORα/γ; HepG2 cells, 5 μmol/L, 24 h, compared to SR1078)	liver luciferase signal (PER2::LUC mice)	systemic toxicity (body weight changes) [1]	activity rhythm (amplitude) and total activity (C57 mice)	expression of BMAL1 (immunofluorescence) (BMAL1)	circadian rhythm of clock gene expression in liver tissue (jet lag mice)	G6Pase and FGF21 expression in mice liver compared to SR1078 (RORα)	periodontal tissue destruction (HE staining) [2]	rhythmic expression of circadian genes in periodontal tissue [2]	alveolar bone resorption (Micro-CT) [2]	IL-10-positive cell populations [2]	NF-κB pathway mediators Tnf-α and Il-6 [2]	TRAP-positive cell numbers (osteoclastic activity) [2]
O=C(Nc1ccc(C(OCO[C@@H]2O[C@H](CO)[C@H](O)[C@H](O)[C@H]2O)(C(F)(F)F)C(F)(F)F)cc1)c1ccc(C(F)(F)F)cc1 [Gala-SR]	downregulated	significantly upregulated	significant upregulation	induced within 0.5 h of treatment	reduced systematic toxicity	significantly increased	enhance the expression of BMAL1	effectively restored	significantly upregulated	attenuated periodontal tissue destruction	restored their rhythmic expression	significantly reduced alveolar bone resorption	markedly increased	significantly downregulated	marked reduction
O=C(Nc1ccc(C(O)(C(F)(F)F)C(F)(F)F)cc1)c1ccc(C(F)(F)F)cc1 [SR1078, reference compound]	–	–	–	induced within 0.5 h of treatment	dose-dependent toxicity	significantly increased	enhance the expression of BMAL1	–	–	attenuated periodontal tissue destruction	restored their rhythmic expression	significantly reduced alveolar bone resorption	markedly increased	significantly downregulated	marked reduction
